The source of these data is ChEMBL document CHEMBL2203098 (J Med Chem, 2012).

The source made the active and inactive calls. No cut-off for these calls is given here.

Data set [1] has as its target Cholinesterase (Equus caballus, UniProt P81908).
For data set [2], the target named is Acetylcholinesterase (Electrophorus electricus, UniProt O42275).
Description: Inhibition of electric eel AChE by colorimetric Ellman assay
In data set [3] the test system is HT-22. The data set is described as follows: Neuroprotective activity against glutamate induced oxidative stress in mouse hippocampal HT22 cells assessed as cell viability at 50 uM after 24 hrs by MTT assay. It is filed as functional, cell-based. For orientation: Tetrazolium assays rely on reduction of a dye to a coloured formazan, in cell work by metabolically active cells.

Data set [4] deals with Rattus norvegicus. The data set is described as follows: Hepatoprotective against tacrine-induced toxicity in Wistar rat liver assessed as increase in ratio of reduced/oxidised glutathione at 2 uM/100 gram of body weight, ip after 24 hrs. In kind it is functional, organism-based.
The target of data set [5] is Cholinesterase (Equus caballus) (UniProt P81908). The data set is described as follows: Inhibition of […] at 100 uM by colorimetric Ellman assay. (In general: In Ellman's method for cholinesterases, released thiocholine reacts with DTNB.)
Data set [6] deals with HT-22. The data set can be described thus: Neuroprotective activity against glutamate induced oxidative stress in mouse hippocampal HT22 cells assessed as cell viability at 1 uM after 24 hrs by MTT assay. In kind it is functional, cell-based.
Data set [7] has as its system HT-22. The data set can be described thus: Neuroprotective activity against glutamate induced oxidative stress in mouse hippocampal HT22 cells assessed as cell viability at 25 uM after 24 hrs by MTT assay. In kind it is functional, cell-based.
Data set [8] deals with HT-22. The data set is described as follows: Neuroprotective activity against glutamate induced oxidative stress in mouse hippocampal HT22 cells assessed as cell viability at 10 uM after 24 hrs by MTT assay. It is filed as functional, cell-based.
Data set [9] addresses Acetylcholinesterase (Electrophorus electricus) (UniProt O42275). The data set can be described thus: Inhibition of electric eel AChE at 100 uM by colorimetric Ellman assay.
Data set [10] relates to Rattus norvegicus. The data set is described as follows: Hepatoprotective activity against tacrine-induced toxicity in Wistar rat liver assessed as decrease in tissue content of TBARS at 2 uM/100 gram of body weight, ip after 24 hrs. In kind it is functional. Also noted: scale not given: the % may be the effect or the level left.
The test system of data set [11] is Rattus norvegicus. The data set can be described thus: Hepatoprotective against tacrine-induced toxicity in Wistar rat liver assessed as increase in ratio of reduced/oxidised glutathione at 6 uM/100 gram of body weight, ip after 24 hrs. In kind it is functional, organism-based.
Data set [12] deals with HT-22. The data set can be described thus: Neurotoxicity in mouse hippocampal HT22 cells assessed as cell viability at 10 uM after 24 hrs by MTT assay. In kind it is toxicity, cell-based. The note with it: ht-22, 24 h.
Data set [13] concerns Rattus norvegicus. The data set is described as follows: Hepatoprotective activity in Wistar rat assessed as decrease in tissue content of TBARS at 2 uM/100 gram of body weight, ip after 24 hrs. It is filed as functional. Also noted: scale not given: the % may be the effect or the level left.
Data set [14] can be described thus: Hepatotoxicity against human HSC cells assessed as reduction in cell number up to 200 uM after 24 hrs using crystal violet staining by photometry. It is filed as toxicity, cell-based.
The nature of data set [15]: Hepatotoxicity against human HSC cells assessed as mitochondrial swelling at 50 to 75 uM after 24 hrs by fluorescence microscopic analysis. It is filed as toxicity, cell-based.
The subject of data set [16] is HT-22. The data set is described as follows: Neurotoxicity in mouse hippocampal HT22 cells assessed as cell viability at 25 uM after 24 hrs by MTT assay. In kind it is toxicity, cell-based. The note with it: ht-22, 24 h.
Data set [17] relates to HT-22. The data set can be described thus: Neurotoxicity in mouse hippocampal HT22 cells assessed as cell viability at 1 uM after 24 hrs by MTT assay. In kind it is toxicity, cell-based. The note with it: ht-22, 24 h.
Data set [18] in a line: Hepatotoxicity against human HSC cells assessed as reduction in cell number at 10 to 75 uM after 24 hrs by fluorescence microscopic analysis. It is filed as toxicity, cell-based.

Chain of Cholinesterase (P81908 whole entry): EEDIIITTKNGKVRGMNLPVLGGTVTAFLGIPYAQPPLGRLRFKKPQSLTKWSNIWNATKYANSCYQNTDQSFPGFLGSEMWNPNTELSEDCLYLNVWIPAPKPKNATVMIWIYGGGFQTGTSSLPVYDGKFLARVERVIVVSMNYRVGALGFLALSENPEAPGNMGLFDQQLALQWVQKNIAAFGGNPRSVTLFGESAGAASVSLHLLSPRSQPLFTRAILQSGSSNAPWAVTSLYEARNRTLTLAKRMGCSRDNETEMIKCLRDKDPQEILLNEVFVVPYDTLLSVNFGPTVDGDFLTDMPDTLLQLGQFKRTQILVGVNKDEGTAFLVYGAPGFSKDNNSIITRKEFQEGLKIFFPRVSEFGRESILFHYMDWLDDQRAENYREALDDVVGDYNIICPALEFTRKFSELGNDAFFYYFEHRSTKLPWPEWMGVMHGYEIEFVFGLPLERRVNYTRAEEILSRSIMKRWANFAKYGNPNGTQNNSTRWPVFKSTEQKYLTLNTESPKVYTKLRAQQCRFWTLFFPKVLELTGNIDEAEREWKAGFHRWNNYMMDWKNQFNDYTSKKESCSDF
Chain of Acetylcholinesterase (O42275 whole entry): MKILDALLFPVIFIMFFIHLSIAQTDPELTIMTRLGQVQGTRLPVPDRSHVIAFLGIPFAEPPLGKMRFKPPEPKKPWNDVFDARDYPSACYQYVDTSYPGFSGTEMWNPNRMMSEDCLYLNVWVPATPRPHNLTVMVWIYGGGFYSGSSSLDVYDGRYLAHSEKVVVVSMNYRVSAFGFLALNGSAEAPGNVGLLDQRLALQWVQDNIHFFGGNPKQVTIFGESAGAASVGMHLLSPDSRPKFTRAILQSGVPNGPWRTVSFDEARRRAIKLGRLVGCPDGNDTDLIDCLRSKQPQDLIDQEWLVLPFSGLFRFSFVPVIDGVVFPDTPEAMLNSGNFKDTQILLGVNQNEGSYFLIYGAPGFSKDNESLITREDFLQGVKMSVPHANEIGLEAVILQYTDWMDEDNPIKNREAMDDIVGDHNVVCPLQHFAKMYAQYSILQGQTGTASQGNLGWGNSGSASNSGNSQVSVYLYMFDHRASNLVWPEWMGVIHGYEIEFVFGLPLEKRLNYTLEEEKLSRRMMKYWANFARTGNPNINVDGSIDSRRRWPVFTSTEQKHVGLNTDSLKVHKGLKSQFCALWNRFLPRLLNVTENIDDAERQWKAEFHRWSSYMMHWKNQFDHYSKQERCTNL
Chain of Acetylcholinesterase (Electrophorus electricus) (O42275 24-633 limits assumed): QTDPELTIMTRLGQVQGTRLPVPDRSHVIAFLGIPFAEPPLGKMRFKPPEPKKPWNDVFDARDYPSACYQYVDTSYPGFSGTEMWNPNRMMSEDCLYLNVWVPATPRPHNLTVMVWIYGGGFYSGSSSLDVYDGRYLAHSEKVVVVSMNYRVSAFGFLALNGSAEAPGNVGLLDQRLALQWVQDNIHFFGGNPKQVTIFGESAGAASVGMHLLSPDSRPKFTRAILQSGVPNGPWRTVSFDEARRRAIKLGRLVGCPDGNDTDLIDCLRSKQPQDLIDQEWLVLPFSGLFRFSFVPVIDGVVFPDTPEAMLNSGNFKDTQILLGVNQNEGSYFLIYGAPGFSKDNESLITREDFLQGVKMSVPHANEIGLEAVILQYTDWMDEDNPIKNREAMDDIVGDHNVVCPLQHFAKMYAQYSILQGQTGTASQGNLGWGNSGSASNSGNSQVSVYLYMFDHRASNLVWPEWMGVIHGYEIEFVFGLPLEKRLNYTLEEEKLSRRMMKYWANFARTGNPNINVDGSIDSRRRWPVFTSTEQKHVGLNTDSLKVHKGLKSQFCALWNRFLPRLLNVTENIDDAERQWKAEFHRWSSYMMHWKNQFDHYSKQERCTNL
Chain of Cholinesterase (Equus caballus) (P81908 whole entry): as the sequence (P81908 whole entry) above

Take `NCCCCCCNc1c2c(nc3ccccc13)CCCC2`: the IC50 (commonly the concentration needed to halve the response being measured) in [1] is 0.002 µM; in data set [2], 0.039 µM.
In the case of `COc1cc(C2Oc3cc([C@H]4Oc5cc(O)cc(O)c5C(=O)[C@@H]4O)ccc3OC2CO)ccc1O` (stereo partly specified) [SILIBININ], the result in data set [3], in data set [6], in data set [7] and in data set [8] was inactive. In addition, the result in [4] and in data set [11] was Active. Further, the inhibition (usually the percentage by which the read-out fell short of the control) stood at 3.1% in data set [5] and 5.5% in data set [9]. Further, the Activity in [10] is on record as 15%.
Consider `O=C(O)CCC(=O)NCCCCCCNc1c2c(nc3ccccc13)CCCC2`, for which the IC50 was 0.361 µM in data set [1] and 0.102 µM in data set [2].
For the compound `COc1cc([C@@H]2Oc3cc([C@H]4Oc5cc(O)cc(O)c5C(=O)[C@@H]4O)ccc3O[C@H]2COC(=O)CCC(=O)NCCCCCCNc2c3c(nc4ccccc24)CCCC3)ccc1O`, the outcome in [3], in data set [6], in [7] and in data set [8] was Active. Moreover, the Activity entry in [12] is recorded as “Non-toxic”; in data set [13], 25%; in data set [14] it was “Non-toxic”; in data set [15], “Non-toxic”; in data set [16], “Non-toxic”; in data set [17], “Non-toxic”. For the same compound, the Activity result in data set [18] is recorded as “Non-toxic”. In addition, the IC50 in data set [1] came to 0.0497 µM; in data set [2] it was 0.0539 µM.
